What all share (assay type): functional
Common to all, as to settings: read-out: ED50 (the source's name)

The test system of one assay is HT-29. The assay can be described thus: Cytotoxicity against human HT-29 cells.
The subject of another assay is P388. Description: Cytotoxicity against mouse P388 cells.
For a further assay, the system named is A549. Description: Cytotoxicity against human A549 cells.

The structures appear in SMILES notation. Values after ≈ are worked out from the molar mass of the structure shown.

Three molecules from ChEMBL document CHEMBL3102797, “Kelsoenethiol and dikelsoenyl ether, two unique kelsoane-type sesquiterpenes, from the Formosan soft coral Nephthea erecta” (2014) can be followed below.

Regarding `C/C(CS)=C1\[C@@H]2[C@H](C)CC[C@@H]2[C@@]2(C)CC[C@@H]12` (relative stereo), the EC50 in the assay with HT-29 worked out at 1.8 µg/mL (≈ 7.61 µM); with P388, 1.3 µg/mL (≈ 5.5 µM).
For `CO[C@H](C(=O)[C@@H](O)[C@@H](C)O)[C@@H]1Cc2cc3cc(O[C@H]4C[C@@H](O[C@@H]5C[C@@H](O)[C@H](O)[C@@H](C)O5)[C@H](O)[C@@H](C)O4)c(C)c(O)c3c(O)c2C(=O)[C@H]1O[C@H]1C[C@@H](O[C@@H]2C[C@@H](O)[C@@H](O[C@@H]3C[C@](C)(O)[C@H](O)[C@@H](C)O3)[C@@H](C)O2)[C@H](O)[C@@H](C)O1` [PLICAMYCIN], the EC50 was 0.08 µg/mL (≈ 0.0737 µM) in the assay with HT-29, 0.07 µg/mL (≈ 0.0645 µM) with A549 and 0.06 µg/mL (≈ 0.0553 µM) with P388.
As to `C=C(C)[C@H]1[C@@H]2[C@H](C)CC[C@@H]2[C@@]2(C)CC[C@@H]12`, the EC50 with HT-29 worked out at 3.2 µg/mL (≈ 15.7 µM); in the assay on P388, 2.8 µg/mL (≈ 13.7 µM).
